{"source": "patent US10928381B2", "about": "“In vitro methods of monitoring autophagy in a human cell using a photoconvertable fluorescent protein linked biomarker” (The Regents of the University of Michigan, priority 2018, dated 2021)", "key": {"Dendra2-LC3 HEK cells": {"test_system": "Dendra2-LC3 HEK cells", "assay": "Optical pulse labeling: time-dependent decay of photoconverted (red, RFP/TRITC) Dendra2-LC3 as measure of autophagic flux", "type": "cell-based, human", "set-up": "key to Hit class in screen of Enzo Autophagy compound library (9H RFP/0H RFP): enhancer: [Sample9H RFP/OH RFP]<[DMSO9H RFP/OH RFP−3SDDMSO]; inhibitor: [Sample9H RFP/OH RFP]>[DMSO9H RFP/OH RFP 3SDDMSO]", "details": "for Effect on torin1-induced Dendra2-LC3 degradation: co-treatment with torin1; for Effect on torin1-induced Dendra2-LC3 degradation / Degradation (decay) of photoconverted Dendra2-LC3: red channel; for Dose dependence of effect on Dendra2-LC3 decay: increasing concentrations, RFP and GFP channels; for Degradation (decay) of photoconverted Dendra2-LC3: vs DMSO, Torin1 1 uM, Bafilomycin-A1 10 nM", "experimental": "FIGS. 8A-E. Time dependent decay of Dendra2-LC3 as an assay of autophagic flux. (FIG. 8A) Dendra2-LC3 reporter cells were imaged prior to photoconversion to measure background TRITC intensity. Immediately following photoconversion with a 5 second pulse of […] light, cells were treated with DMSO, 1 uM Torin1, or 10 nM Bafilomycin-A1 and then were subsequently imaged at the indicated time points. Images are psuedocolored to better highlight intensity differences. (FIGS. 8B-E) Time dependent changes in photoconverted Dendra2-LC3 fluorescence in the TRITC (FIGS. 8B, D) and GFP (FIGS. 8C, E) channels. Gray boxes represent the pre and post-photoconversion time points. TRITC intensity values are normalized, setting the background intensity prior to conversion to 0 and the post-conversion value to 1. GFP values are normalized to the pre-conversion intensity. Error bars represent the SEM from three replicate experiments. […] (FIG. 8C) Following photoconversion there is a 40% drop in GFP intensity. As new Dendra2-LC3 is synthesized, GFP levels return to pre-photoconversion levels over the span of 13.5 hours. […] Cells were transfected with 20 nM ATG5 siRNA two days prior to imaging.\nFIG. 9A-C. Evaluating the efficacy of known autophagy modulators. (FIG. 9A) An unbiased screen of the Enzo Autophagy compound library identified several known autophagy compounds as hits providing construct validity to the assay. Rapamycin, NVP-BEZ235 and AKT inhibitor X, were among the compounds appropriately identified as enhancers while Bafilomycin registered as an inhibitor. […] Cells were imaged in RFP to measure background fluorescence, then photoconverted with a 4 second DAPI exposure and immediately imaged again to establish the postconversion intensity. Drugs from the Enzo Autophagy library were added at a concentration of 10 uM via a robotic liquid handler. 9 hours later the cells were imaged again in order to assess the efficacy of the drugs. Hits were defined as follows: enhancer: [Sample9H RFP/OH RFP]<[DMSO9H RFP/OH RFP−3SDDMSO], inhibitor: [Sample9H RFP/OH RFP]>[DMSO9H RFP/OH RFP 3SDDMSO]. […] Imaging of the compound library was repeated in GFP. Intensity values are reported 15 hours after drug treatment. (FIG. 9C) The reduction in Dendra2-LC3 half-life observed upon treatment of autophagic flux enhancers is attenuated with partial knockdown of ATG5. Cells were transfected with 20 nM ATG5 siRNA 2 days prior to imaging. Error bars represent SEM from three replicate experiments.\nExperiments were conducted during development of embodiments herein to develop a sensitive method—optical pulse labeling (OPL)—that takes advantage of the photoconvertible fluorescent protein Dendra2 for estimations of autophagic flux in cellulo (Refs 14, 34; herein incorporated by reference in their entireties) (FIG. 1b). […] Dendra2 was fused to LC3, a specific marker of autophagosomes and itself an autophagy substrate (Refs. 27, 31; herein incorporated by reference in their entireties). Following photoconversion, the time-dependent reduction in red LC3-Dendra2 (FIG. 1c) is used to calculate protein half-life, representing an estimate of autophagy flux for individual cells (Refs. 14, 34; herein incorporated by reference in their entireties) Furthermore, because LC3 is degraded as autophagosomes mature, the return to steady-state levels of green Dendra2-LC3 after photoconversion (FIG. 1d) reflects activity within the pathway as a whole. The assay is noninvasive, permitting longitudinal analyses of autophagy kinetics in living cells, and amenable to HTS.\nFor these studies the potent mTOR inhibitor torin1 (Ref. 36; herein incorporated by reference in its entirety) was selected as a positive control for autophagy induction, and the vacuolar ATPase inhibitor bafilomycin-A1 (Ref. 37; herein incorporated by reference in its entirety) as a positive control for autophagy inhibition. In each case, DMSO served as a vehicle (negative) control. […]"}, "[1]": {"test_system": "ATG5-deficient Dendra2-LC3 HEK cells", "assay": "Autophagic flux in Dendra2-LC3 HEK cells with ATG5 siRNA knockdown", "type": "cell-based, human", "details": "20 nM ATG5 siRNA two days prior to imaging, red and green channels", "experimental": "FIG. 6, panels a-c. Evaluation of autophagy-modifying compounds in ATG5-deficient cells. […] IB, immunoblot.\nFIGS. 8A-E. Time dependent decay of Dendra2-LC3 as an assay of autophagic flux. (FIG. 8A) Dendra2-LC3 reporter cells were imaged prior to photoconversion to measure background TRITC intensity. Immediately following photoconversion with a 5 second pulse of […] light, cells were treated with DMSO, 1 uM Torin1, or 10 nM Bafilomycin-A1 and then were subsequently imaged at the indicated time points. Images are psuedocolored to better highlight intensity differences. (FIGS. 8B-E) Time dependent changes in photoconverted Dendra2-LC3 fluorescence in the TRITC (FIGS. 8B, D) and GFP (FIGS. 8C, E) channels. Gray boxes represent the pre and post-photoconversion time points. […]\nThe possibility that cell death and toxicity mimics the reduction in GFP intensity that would otherwise denote autophagy induction was also addressed. To avoid confounding from toxicity, the area occupied by cells in each image is calculated using ImageJ software and used as a proxy for cell number; since all wells received the same number of cells, >25% reductions in the area occupied by cells at the end of the experiment indicates toxicity. The formation of Dendra2-LC3 puncta in each condition is scored simultaneously using the ‘analyze particles’ function in ImageJ. […]"}}, "note": "Entries after “also recorded” stand apart in the source; their conditions may differ.", "data": [{"smiles": "CO/C1=C\\C(C)=C\\[C@@H](C)[C@@H](O)[C@@H](C)C/C(C)=C/C=C/[C@H](OC)[C@@H]([C@@H](C)[C@@H](O)[C@H](C)[C@@]2(O)C[C@@H](O)[C@H](C)[C@@H](C(C)C)O2)OC1=O", "note": "[Bafilomycin-A1, bafilomycin-A1]", "values": [{"measurement": "Hit class in screen of Enzo Autophagy compound library (9H RFP/0H RFP)", "setting": "Dendra2-LC3 HEK cells; 10 uM, 9 hours after drug addition", "result": "inhibitor"}, {"measurement": "Effect on torin1-induced Dendra2-LC3 degradation", "setting": "Dendra2-LC3 HEK cells; listed as BafilomycinA1", "result": "blocks induction by torin1"}, {"measurement": "Effect on torin1-induced Dendra2-LC3 degradation", "setting": "Dendra2-LC3 HEK cells; listed as bafilomycin-A1", "result": "completely blocked the effects of torin1"}, {"measurement": "Dose dependence of effect on Dendra2-LC3 decay", "setting": "Dendra2-LC3 HEK cells", "result": "similar, tunable response"}, {"measurement": "Degradation (decay) of photoconverted Dendra2-LC3", "setting": "Dendra2-LC3 HEK cells; listed as bafilomycin", "result": "extends it"}, {"measurement": "Degradation (decay) of photoconverted Dendra2-LC3", "setting": "Dendra2-LC3 HEK cells; listed as bafilomycin-A1", "result": "slowed its clearance"}]}, {"smiles": "CCC(=O)N1CCN(c2ccc(-n3c(=O)ccc4cnc5ccc(-c6cnc7ccccc7c6)cc5c43)cc2C(F)(F)F)CC1", "note": "[Torin1, torin1]", "values": [{"measurement": "Dose dependence of effect on Dendra2-LC3 decay", "setting": "Dendra2-LC3 HEK cells", "result": "increased in a dose dependent manner"}, {"measurement": "Degradation (decay) of photoconverted Dendra2-LC3", "setting": "Dendra2-LC3 HEK cells", "result": "significantly accelerates Dendra2-LC3 degradation; also recorded: accelerates decay; also recorded: significantly enhanced Dendra2-LC3 degradation"}, {"measurement": "Effect of ATG5 knockdown on drug-induced autophagic flux", "setting": "[1]", "result": "attenuates the effects"}, {"measurement": "Effect of ATG5 knockdown on drug-induced autophagic flux", "setting": "[1]; listed as torin1", "result": "attenuates the ability of torin1 to induce autophagic flux; also recorded: mitigated the autophagy-inducing effects"}]}]}
